Assay results reported in US20050058745A1, “Use of Labiatae herb preparations for extending the flavor shelf life of malt beverages” (priority 2003, published 2005).

What was measured:
[1] = Walter et al. 1997; cited from earlier work
[2] = Trained panel flavor evaluation, light beer, forced aging; settings: 5 ppm, 6 days 32° C.; for preservation of fresh flavor (words): light beer
Description: Separate solution of pure rosmarinic acid, pure carnosol and pure carnosic acid were prepared in ethanol as previously.
The light beer used in this study was approximately one month old and was purchased at a local market. Bottle additions were done as in Example 1.
The bottles were placed in a heated room at 32±1° C. in the dark. After the allotted aging time, the bottles of beer were transferred to a dark refrigerator and stored at approximately 2° to 4° C. until they were analyzed. Additional bottles from the same code were kept unopened in 2° to 4° C. storage. These unopened samples from the same beer code were labeled “Fresh Control” used to provide fresh samples for the trained panel.
At the appropriate times, a trained 7-member panel evaluated the beers. […] Five beers were evaluated at the session—Fresh Control, Aged No Addition, and Aged containing each one of the Labiatae treatments. The overall preference rank, the character and intensity of the aroma, the levels of paper/cardboard aroma and flavor, sour or off flavors, hang and astringency and bitterness quality and intensity were evaluated.

[3] = DCIP redox potential of light beer with carnosol; format: physicochemical; settings: for DCIP Redox Potential: 2 to 4° C. for 1 day
Description: A 2% solution of carnosol, isolated from sage extract, was prepared by weighing 200 mg pure carnosol and bringing to 10 mL with pure ethanol. Bottles were dosed at 10 and 20 ppm carnosol with our standard bottle addition technique of opening, fobbing to exclude air, and crowning.
Bottles were stored at 2 to 4° C. for 1 day before analysis. Standard DCIP and DPPH measurements were taken.

[4] = DPPH number of light beer with carnosol; format: physicochemical; settings: for DPPH No.: 2 to 4° C. for 1 day
Description: To perform the test, about 0.04 g of DPPH was weighed to the nearest 0.1 mg in a 100 mL volumetric, recording the exact weight of DPPH. The DPPH was dissolved in methanol and methanol was added to bring the volume to the 100 mL mark. The solution was sonicated to facilitate dissolution. The beers to be measured were opened and 12 mL of each was poured into separate 15 mL centrifuge tubes, making sure that the volumes in all tubes were equal. The analyses were done in triplicate for each beer. An extra beer sample served as a spectrophotometer blank. The beer was degassed by centrifuging it for 15 min at 6,000 rpm. Into each of two 25 mL flasks was pipeted 5 mL of the pH 4.5 water-ethanol buffer. The spectrophotometer wavelength was set to 531 nm and a buffered water blank was zeroed. 1.0 mL of DPPH solution was added to the water buffer, which was swirled at the same time a timer was started. Just before 10 minutes had elapsed, the sample was transferred to a cuvette and the absorbance (ABL) was measured. The analysis was duplicated with another buffer. For accuracy it is necessary that great care be taken to add exactly 1 mL reagent. It is also important to swirl (mix) the samples consistently as the assay is sensitive to oxygen and to the amount of reagent used. Degassed beer was used to obtain a baseline at 531 nm. After centrifugation 5 mL of the beer was transferred into the appropriate labeled 25 mL flask. 1.0 mL of DPPH solution was added, the solution was swirled and the timer was started. The Absorbance (A531) of the beer sample was recorded. This process was repeated for all samples. To eliminate any possible prejudice in order of analysis, samples were analyzed randomly. The following formula was used to calculate the amount of DPPH which reacts with 5 mL of beer: μmol DPPH=((1−A531/ABL)×(g DPPH/394))×10^6
A 2% solution of carnosol, isolated from sage extract, was prepared by weighing 200 mg pure carnosol and bringing to 10 mL with pure ethanol. […]

[5] = Dadic 1984; cited from earlier work

O=c1c(O)c(-c2ccc(O)c(O)c2)oc2cc(O)cc(O)c12 [quercitin]
effectiveness in standardized antioxidant assays [1]: ineffective

CC(C)c1cc2c(c(O)c1O)[C@@]13CCCC(C)(C)[C@@H]1C[C@@H]2OC3=O [CN, carnosol]
panelists' preference for treated sample over Aged No Addition sample [2]: 7 of 7 panelists preferred | preservation of fresh flavor (words) [2]: very significantly retards the rate of staling | preservation of fresh flavor (words) ([2]; listed as Carnosol): significant, positive impact on preserving fresh flavor | effect on redox potential by DCIP method [3]: does not enhance the redox potential of beer | DCIP Redox Potential ([3]; 10 ppm Carnosol): 19.6 | DCIP Redox Potential ([3]; 20 ppm Carnosol): 19.6 | effect on beer's ability to reduce DPPH [4]: does not enhance a beer's ability to reduce DPPH | DPPH No. ([4]; 10 ppm Carnosol): 33.1 μmol DPPH | DPPH No. ([4]; 20 ppm Carnosol): 37.0 μmol DPPH

Cc1cc(C(C)(C)C)c(O)c(C(C)(C)C)c1 [BHT]
effectiveness as antioxidant for beer [5]: ineffective

COc1ccc(O)c(C(C)(C)C)c1 [BHA]
effectiveness as antioxidant for beer [5]: ineffective

catechin
effectiveness in standardized antioxidant assays [1]: ineffective
